Test [1] concerns the target T1, phosphotriesterase (Brevundimonas diminuta, UniProt P0A434). In words: Batch Michaelis-Menten kinetics of phosphotriesterase with pesticide substrates in Tween 85 reversed micelles and in Tris-HCl buffer. The class given is biochemical. On the set-up: made in house. As for the experimental part:
Solutions of micelles were prepared in the following manner: 8 ml isopropanol was added to 13 g Tween 85 and Hexane was added to achieve a mixture of 50 ml. Water or Tris-HCl buffer (0.05M, pH 7.0) and hexane were added to this mixture to yield the desired system. […] Appropriate volumes were mixed to fill 1 ml quartz cuvettes, and the reaction was followed in a spectrophotometer. (Perkin Elmer Lambda 3). Michaelis-Menten kinetic constants (discussed below) were found by non-linear regression analysis of the initial rate data.
Enzymes function as catalysts in solution by lowering the free energy of the transition state in a reaction. Like conventional catalysts, the enzyme facilitates the reaction, but is in no way altered, so that when the reaction is completed, it is available to catalyze the conversion of more substrate molecules. When a single substrate is converted to product, the schematic of the reaction can be written [drawing 2] where S and P are substrate and product, respectively, and ES is an enzyme substrate complex. When the substrate concentration is much higher than the enzyme concentration, the enzyme is said to obey the Michaelis-Menten relationship describing the reaction rate, [formula] where (E) is the total enzyme concentration and (S) is the initial substrate concentration. KM is the saturation constant, and is a function of the individual rate constants, [formula] KM has the physical meaning as the substrate concentration which yields half the maximal reaction rate (Vmax), which is dependent on the catalytic rate constant of the chemcial step, k2, as well as the enzyme concentration,
Initial experiments were performed using paraoxon, parathion and methyl paraoxon. The effect of micelle size, pH, ionic strength and temperature have been investigated.

The target in test [2] is T1, phosphotriesterase. The test can be described thus: Enzyme activity for paraoxon degradation and enzyme partitioning in the two-phase organic/reverse micelle system (Tween rich heavy phase, excess hexane phase). The class given is biochemical. On the set-up: made in house. The note with it: Tween rich heavy phase of the organic/reverse micelle two-phase system. The source says:
As set forth above, if the products of the reaction are more soluble in the organic phase than in an aqueous phase, it is preferable to choose a system with an excess of organic phase to facilitate product removal. Such a region can be found, for example, in FIG. 2C in the lower left hand corner of the phase diagram. This region is illustrated in FIG. 12 as the shaded area.
In this region, close to the single phase region, reverse micelles form with an excess hexane phase which has a low concentration (<15 mM) of Tween with adsorbed water.

For test [3], the target named is T1, phosphotriesterase.
[4] abbreviates: Tris-HCl buffer, 10% Methanol added to enhance solubility.

Broadly, the Km is the concentration of substrate that gives half-maximal velocity. By Vmax is commonly meant the top rate of the reaction or transport when substrate is in excess. By kcat is commonly meant the maximal rate divided by the concentration of active sites.

As for `COP(=O)(OC)Oc1ccc([N+](=O)[O-])cc1` [METHYL PARAOXON, methyl paraoxon], the Michaelis-Menten constant (Km) at phosphotriesterase [1] (Tris-HCl buffer) stood at 0.146 mM; at phosphotriesterase [1] (micelles, Wo 5.5), 17.2 ± 3.2 mM; on phosphotriesterase [1] (micelles, Wo 28), 15.6 ± 2 mM; on phosphotriesterase [1] (micelles, Wo 46), 15.3 ± 1.9 mM; at phosphotriesterase [1] (micelles, Wo 66), 37.2 ± 11 mM; on phosphotriesterase [1] (micelles, Wo 82) it was 32.9 ± 8.9 mM. Moreover, the Km at phosphotriesterase [1] (micelles, Wo 122) is 50 ± 19 mM. The maximum rate (Vmax) came to 2293 µmol/mg/min on phosphotriesterase [1] (Tris-HCl buffer); 26.5 ± 2.8 µmol/mg/min on phosphotriesterase [1] (micelles, Wo 5.5); 43.2 ± 2.4 µmol/mg/min on phosphotriesterase [1] (micelles, Wo 28); 53.1 ± 3.0 µmol/mg/min on phosphotriesterase [1] (micelles, Wo 46); 192 ± 37 µmol/mg/min on phosphotriesterase [1] (micelles, Wo 66); 225 ± 38 µmol/mg/min on phosphotriesterase [1] (micelles, Wo 82). Further, at phosphotriesterase [1] (micelles, Wo 122), the Vmax is 397 ± 111 µmol/mg/min. Besides, the kcat at phosphotriesterase [1] (Tris-HCl buffer) was 1509 s⁻¹; on phosphotriesterase [1] (micelles, Wo 5.5), 17 s⁻¹; at phosphotriesterase [1] (micelles, Wo 28), 28 s⁻¹; on phosphotriesterase [1] (micelles, Wo 46) it was 35 s⁻¹; on phosphotriesterase [1] (micelles, Wo 66), 126 s⁻¹; at phosphotriesterase [1] (micelles, Wo 82), 148 s⁻¹. Also, the kcat on phosphotriesterase [1] (micelles, Wo 122) worked out at 261 s⁻¹. The “kcat /KM” value on phosphotriesterase [1] (Tris-HCl buffer) was 10,340 mM^-1 s^-1; on phosphotriesterase [1] (micelles, Wo 5.5), 1.0 mM⁻¹ s⁻¹; at phosphotriesterase [1] (micelles, Wo 28), 1.182 mM⁻¹ s⁻¹; at phosphotriesterase [1] (micelles, Wo 46) it was 2.28 mM⁻¹ s⁻¹; at phosphotriesterase [1] (micelles, Wo 66) it was 3.35 mM⁻¹ s⁻¹; at phosphotriesterase [1] (micelles, Wo 82) it was 4.5 mM⁻¹ s⁻¹. In addition, the “kcat /KM” value on phosphotriesterase [1] (micelles, Wo 122) amounted to 5.2 mM⁻¹ s⁻¹.
As for `CCOP(=O)(OCC)Oc1ccc([N+](=O)[O-])cc1` [PARAOXON, Paraoxon], the maximal velocity (Vmax) was found to be 1.686 ± 42 µmol/mg/min at phosphotriesterase [1] (Tris-HCl buffer); 107 ± 12 µmol/mg/min at phosphotriesterase [1] (micelles, Wo 6.9); 430 ± 28 µmol/mg/min at phosphotriesterase [1] (micelles, Wo 30); 556 ± 80 µmol/mg/min on phosphotriesterase [1] (micelles, Wo 45); 992 ± 149 µmol/mg/min at phosphotriesterase [1] (micelles, Wo 69); 1.753 ± 259 µmol/mg/min at phosphotriesterase [1] (micelles, Wo 125). Moreover, the kcat on phosphotriesterase [1] (Tris-HCl buffer) was 1,110 ± 28 s^-1; on phosphotriesterase [1] (micelles, Wo 6.9), 70.3 ± 7.9 s⁻¹; at phosphotriesterase [1] (micelles, Wo 30) it was 283 ± 18.4 s⁻¹; at phosphotriesterase [1] (micelles, Wo 45) it was 366 ± 53 s⁻¹; on phosphotriesterase [1] (micelles, Wo 69), 653 ± 98 s⁻¹; at phosphotriesterase [1] (micelles, Wo 86), 789 ± 86 s⁻¹. Moreover, the catalytic constant (kcat) on phosphotriesterase [1] (micelles, Wo 125) came to 1150 ± 170 s⁻¹; on phosphotriesterase [2], 975 s⁻¹. The “kcat /KM” value was 58,421 mM^-1 s^-1 on phosphotriesterase [1] (Tris-HCl buffer); 4.9 mM⁻¹ s⁻¹ at phosphotriesterase [1] (micelles, Wo 6.9); 9.8 mM⁻¹ s⁻¹ at phosphotriesterase [1] (micelles, Wo 30); 11.8 mM⁻¹ s⁻¹ at phosphotriesterase [1] (micelles, Wo 45); 18.8 mM⁻¹ s⁻¹ at phosphotriesterase [1] (micelles, Wo 69); 23.7 mM⁻¹ s⁻¹ on phosphotriesterase [1] (micelles, Wo 86). On phosphotriesterase [1] (micelles, Wo 125), the “kcat /KM” value came to 39.1 mM⁻¹ s⁻¹. Moreover, the Michaelis constant (Km) at phosphotriesterase [1] (micelles, Wo 6.9) worked out at 14.3 ± 3.4 mM; on phosphotriesterase [1] (micelles, Wo 30), 28.9 ± 3.8 mM; on phosphotriesterase [1] (micelles, Wo 45), 31.2 ± 8.2 mM; on phosphotriesterase [1] (micelles, Wo 69) it was 34.8 ± 9 mM; on phosphotriesterase [1] (micelles, Wo 86), 33.3 ± 6.7 mM; on phosphotriesterase [1] (micelles, Wo 125), 29.5 ± 8.3 mM. The Michaelis-Menten constant (Km) on phosphotriesterase [2] came to 32 mM.
Consider `CCOP(=S)(OCC)Oc1ccc([N+](=O)[O-])cc1` [PARATHION, Parathion], for which the Km on phosphotriesterase [1] (setting [4]) was found to be 0.35 ± 0.08 mM; at phosphotriesterase [1] (micelles, Wo 6) it was 81 ± 16 mM. The maximum rate (Vmax) was found to be 2850 ± 540 µmol/mg/min on phosphotriesterase [1] (setting [4]); 1.37 ± 0.15 µmol/mg/min on phosphotriesterase [1] (micelles, Wo 6); 9.7 ± 1.4 µmol/mg/min at phosphotriesterase [1] (micelles, Wo 29); 14.7 ± 2.4 µmol/mg/min at phosphotriesterase [1] (micelles, Wo 45); 28 ± 17 µmol/mg/min on phosphotriesterase [1] (micelles, Wo 70); 52 ± 28 µmol/mg/min at phosphotriesterase [1] (micelles, Wo 85). In addition, the kcat on phosphotriesterase [1] (setting [4]) is 1870 ± 360 s⁻¹; on phosphotriesterase [1] (micelles, Wo 6), 0.90 ± 0.10 s⁻¹; at phosphotriesterase [1] (micelles, Wo 29) it was 6.4 ± 0.9 s⁻¹; on phosphotriesterase [1] (micelles, Wo 45), 9.7 ± 1.6 s⁻¹; at phosphotriesterase [1] (micelles, Wo 70), 18 ± 11 s⁻¹; at phosphotriesterase [1] (micelles, Wo 85) it was 34 ± 18 s⁻¹. The “kcat /KM” value on phosphotriesterase [1] (setting [4]) was 5,340 mM^-1 s^-1; on phosphotriesterase [1] (micelles, Wo 6), 0.011 mM⁻¹ s⁻¹; on phosphotriesterase [1] (micelles, Wo 29), 0.054 mM⁻¹ s⁻¹; on phosphotriesterase [1] (micelles, Wo 45), 0.074 mM⁻¹ s⁻¹; at phosphotriesterase [1] (micelles, Wo 70), 0.082 mM⁻¹ s⁻¹; at phosphotriesterase [1] (micelles, Wo 85), 0.082 mM⁻¹ s⁻¹.
As for `OCCO` [ethylene glycol], the “effect on enzyme activity” value on phosphotriesterase [3] (micelles prepared with it as a cosurfactant) was “enhanced enzyme activity”.
As for `CC(C)O` [isopropanol], the “effect on activity of phosphotriesterase” value on phosphotriesterase [3] (in buffer) is recorded as “reduce the activity”.

Source of the values: patent US5510247A, “Centrifugal multiphase systems and method for using the same” (University of Pittsburgh, priority 1993, dated 1996).
